# From ChEMBL document CHEMBL1123536, “Studies on Ca2+ channel antagonists. 5-[(3,4-Dimethoxyphenethyl)methylamino]-2-(3,4-dimethoxyphenyl)-2- isopropylpentyl isothiocyanate, a chemoaffinity ligand derived from verapamil” (J Med Chem, 1986)
# Assays:
# Rattus norvegicus [1] = species: Rattus norvegicus; assay: Compound was evaluated for the concentration dependent negative ionotropic effect in rat right myocardial ventricular strips; assay type: functional; details: Cardiac ventricle
# Rattus norvegicus [2] = species: Rattus norvegicus; assay: Compound was evaluated for the displacement of [3H]gallopamil from specific binding sites on rat myocardial membrane particulates; details: Myocardium
compound,measurement,setting,value
COc1ccc(CCN(C)CCCC(CN=C=S)(c2ccc(OC)c(OC)c2)C(C)C)cc1OC (stereo unspecified),EC50,Rattus norvegicus [1],4.56 µM
same,IC50,Rattus norvegicus [2],0.342 µM
COc1ccc(CCN(C)CCCC(C#N)(c2cc(OC)c(OC)c(OC)c2)C(C)C)cc1OC (stereo unspecified) [GALLOPAMIL],EC50,Rattus norvegicus [1],1.95 µM
same,IC50,Rattus norvegicus [2],0.016 µM
COc1ccc(CCN(C)CCCC(C#N)(c2ccc(OC)c(OC)c2)C(C)C)cc1OC (stereo unspecified) [VERAPAMIL],EC50,Rattus norvegicus [1],2.51 µM
same,IC50,Rattus norvegicus [2],0.362 µM
